One experiment addresses T1, Ube2G2/MmUbc7 (Mus musculus, UniProt P60605).
T1 construct: made in house; host or cells: coupled in vitro transcription/translation in rabbit reticulocyte lysate or wheat germ
T1 sequence (P60605 1-165): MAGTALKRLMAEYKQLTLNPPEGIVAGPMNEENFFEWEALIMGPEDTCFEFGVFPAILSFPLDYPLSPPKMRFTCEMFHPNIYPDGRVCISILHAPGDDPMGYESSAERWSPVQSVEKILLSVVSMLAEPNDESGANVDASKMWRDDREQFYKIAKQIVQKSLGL
The experiment in a line: GST pull-down binding of in vitro translated 35S-Met Ube2G2/MmUbc7. Also noted: species or system human. The settings on record: GST fusion pull-down; 35S-Met labeled E2.

Another experiment has as its target T2, Myc-Ube2G2 (Mus musculus, UniProt P60605).
T2 construct: expressed in transfected cells; host or cells: HEK 293T
T2 sequence (P60605 1-165): T1 sequence (P60605 1-165)
The experiment in a line: Co-immunoprecipitation with co-expressed Myc-Ube2G2 in cells. The class given is cell-based. The settings on record: anti-Myc IP, anti-GFP IB. Here is the method:
(§1) Transfections of HT1080, NIH 3T3 and HEK 293T cells were carried out ˜24 hr after plating using Polyfect (Qiagen, Valencia, Calif.) and cells harvested after ˜48 hr. J558 cells were transfected by electroporation using Bio-rad GENE pulser II at settings of 250 v, 950uF. Vector without insert was used to equalize total plasmid. In most experiments 0.15 μg of pEGFP-C1 served as an internal control. For experiments not involving immunoprecipitation, 6×10^5 cells were plated in 6 well plates and cell lysis was with Mammalian Protein Extraction Reagent (Pierce). For immunoprecipitation, 2.4×10^6 cells were seeded in 100 mm dishes and cells were lysed in RIPA buffer (1×PBS, 1% Nonidet P40. 0.5% sodium deoxycholate, 0.1% SDS). Lysis buffers were supplemented with Protease Inhibitor Cocktail (Sigma) and 10 mM iodoacetamide. Supernatants were analyzed after a 10,000×g centrifugation using standard techniques for immunoprecipitation, SDS-PAGE, immunoblotting and ECL. Treatment of cells with MG132 (Sigma) was at 50 μM for eight hr. Cycloheximnide was used at 50 μg/ml. All cells were collected at the end of the six hr chase.
FIG. 5 depicts the results of immunoprecipitation of Ube2G2 (MmUbc7) from HEK 293T cells co-transfected with a plasmid encoding myc-tagged MmUbc7/Ube2G2 together with s plasmid encoding various forms of gp78. […]

The subject of a further experiment is ERAD substrate CD3-δ. The experiment in a line: CD3-δ level in co-transfected cells by immunoblotting. The class given is cell-based. Conditions: for effect on CD3-δ level (stabilization): co-transfection with CD3-δ, immunoblot. Here is the method: as §1
FIG. 7 depicts the stabilization of CD3-δ protein in cells transfected with the G2BD, but not with the G2BD with amino acids 579-584 (of SEQ ID NO:2) mutated. HEK 293T cells were transfected with the ERAD substrate CD3-δ along with the indicated GFP fusions of gp78. The left and right sides are two separate experiments.
(§2) To test this, GFP fusions of either a minimal E2 binding domain (GFP-574-611) or a more extended region that includes the C-terminus of gp78 (GFP-574-643) were evaluated (FIG. 21A). […] To assess this further, the C-terminal region of gp78 was fused to the eight amino acid Flag tag. […] Mdm2 is a RING finger E3 for both itself and p53 that is neither an ERAD substrate nor known to utilize Ube2G2 as an E2. […] To establish with certainty that the effect observed with expression of the Ube2G2 binding site is a consequence of binding endogenous E2, and not due to other unanticipated effects, cells were co-transfected with increasing amounts of Ube2G2 (FIG. 21C, lanes 3 and 4). […] These findings clearly establish that the isolated E2 binding site has the potential to markedly alter ERAD of CD3-δ. To ensure the effect observed was not peculiar to one substrate, TCR-α was evaluated (FIG. 21D).
A general note: In western blotting, separated proteins are transferred to a membrane and probed.

Another experiment has as its system gp78. The experiment in a line: gp78 level in transfected cells by immunoblotting. In kind it is cell-based. Here is the method: as §1, with “All cells were collected at the end of the six hr chase.” left out
gp78 is degraded in a proteasome-dependent manner, and deletion of the entire cytoplasmic domain results in its stabilization. […] To determine the significance of the RING finger, Cue domain and Ube2G2 binding site on gp78 stability, mutations of each were evaluated within full-length gp78. […]

The next experiment has as its system ERAD substrate TCR-α. The experiment can be described thus: TCR-α level in co-transfected cells. In kind it is cell-based. The settings on record: co-transfection with TCR-α. The protocol:
as §1
FIG. 9 depicts the stabilization of endogenous TCRα by the G2BD. TCR-α is a subunit of the T cell antigent receptor and an ERAD substrate. TCR-α was stabilized by the region implicated in Ube2G2 binding.
as §2

Another experiment deals with Mdm2. The experiment can be described thus: Mdm2 level in co-transfected cells. The class given is cell-based. Conditions: cells transfected with CD3-δ and Mdm2. Here is the method: as §1
To test this, GFP fusions of either a minimal E2 binding domain (GFP-574-611) or a more extended region that includes the C-terminus of gp78 (GFP-574-643) were evaluated (FIG. 21A). […] To ensure the effect observed was not peculiar to one substrate, TCR-α was evaluated (FIG. 21D).

The target in experiment [1] is T3, lysine 48-linked (K48) tetra-ubiquitin (Homo sapiens, UniProt P0CG47).
T3 construct: 1 μg K48 tetra-ubiquitin produced as described (Piotrowski et al., 1997); made in house
The experiment in a line: Tetra-ubiquitin binding to GST fusions. The settings on record: anti-ubiquitin immunoblot. The protocol:
GST fusions were purified from E. Coli. Binding was carried out using equi-molar amount of fusion proteins measured by Commassie blue staining. Generally, 20 picomoles/sample were used. In vitro translated E2 was generated by coupled transcription and translation using 35S methionine in either wheat germ or rabbit reticulocyte lysate. Binding assays using in vitro translated E2 was carried out by incubating GST protein pre-bound to Glutathione-sepharose 4B with […] of ^35S-methionine labeled E2 in binding buffer (25 mM Tris-HCl, pH 7.4; 50 mM NaCl, 5 mM DTT; and 0.5% NP-40) overnight at 4° C. Beads were washed with binding buffer and resolved by SDS-PAGE under reducing conditions. Analysis was by Storm PhosphoImager (Applied Biosystems, Foster City, Calif.). Direct binding assays used wild type His6-MmUbc7 (His6-Ube2G2) and Glutathione-sepharose bound GST fusions. Beadbound GST protein was incubated with 100 ng purified His6-MmUbc7 in binding buffer and washed and eluted as above. After transfer to Hybond-P (Amersham Biosciences) binding was assessed with anti-His6 followed by Enhanced Chemiluminescence ECL; Pierce). Ubiquitin binding studies were performed with binding and washing as above using 1 μg K48 tetra-ubiquitin produced as described (Piotrowski et al., 1997). Detection was by anti-ubiquitin immunoblotting.

Entries after “also recorded” stand apart in the source; their conditions may differ. Ends that are not written are not given here. Peptide text beside a SMILES is read from it. * marks the point of attachment. Cbz = O=C(OCc1ccccc1)*

Protocol for Ube2G2/MmUbc7: GST fusions were purified from E. Coli. Binding was carried out using equi-molar amount of fusion proteins measured by Commassie blue staining. Generally, 20 picomoles/sample were used. In vitro translated E2 was generated by coupled transcription and translation using 35S methionine in either wheat germ or rabbit reticulocyte lysate. […] Beads were washed with binding buffer and resolved by SDS-PAGE under reducing conditions. Analysis was by Storm PhosphoImager (Applied Biosystems, Foster City, Calif.). Direct binding assays used wild type His6-MmUbc7 (His6-Ube2G2) and Glutathione-sepharose bound GST fusions. Beadbound GST protein was incubated with 100 ng purified His6-MmUbc7 in binding buffer and washed and eluted as above. After transfer to Hybond-P (Amersham Biosciences) binding was assessed with anti-His6 followed by Enhanced Chemiluminescence ECL; Pierce).
The E2 enzymes were in vitro translated using wheat germ.
GST fusion proteins encoding the regions indicated in FIGS. 3A-3C were evaluated for the ability to bind to Ube2G2/MmUbc7 that had been in vitro transcribed and translated in rabbit reticulocyte lysate. gp78C represents the entire C-terminal cytoplasmic domain of gp78 (amino acid residues 309-643 of SEQ ID NO:2).

As for “574-608: GST fusion of amino acids 574-608 of gp78 (SEQ ID NO:2) (SADERQRMLVQRKDELLQQARKRFLNKSSEDDAAS; listed as Homo sapiens)”, the “binding to in vitro translated Ube2G2/MmUbc7” value in the experiment with Ube2G2/MmUbc7 is on record as “sufficient for binding to Ube2G2; also recorded: bound in vitro translated Ube2G2 comparably to the complete gp78 C-terminal tail”.
For the compound “579-600: GFP fusion of amino acids 579-600 of SEQ ID NO:2 (QRMLVQRKDELLQQARKRFLNK; listed as Homo sapiens)”, in the experiment with Myc-Ube2G2, the “binding of GFP fusion to co-expressed Myc-Ube2G2 in cells” value is “sufficient to bind Ube2G2 in cells”.
Turning to `CC(C)C[C@@H](C=O)NC(=O)[C@H](CC(C)C)NC(=O)[C@H](CC(C)C)NC(=O)OCc1ccccc1` [MG132, reference compound] (Cbz-Leu-Leu-Leu-aldehyde), the “reversal of G2BD-induced CD3-δ stabilization by co-transfected Ube2G2” value in the experiment on ERAD substrate CD3-δ (cells expressing Flag-tagged gp78 574-643, 2 or 4 μg Ube2G2 plasmid) is given as “blocked the effect of transfected Ube2G2”. For the same compound, in the experiment on gp78, the “effect of proteasome inhibitor on gp78 level” value was “stabilized wild type gp78”. Also, in the experiment with ERAD substrate TCR-α, the “effect on TCR-α level (stabilization)” value was “prevented degradation of TCR-α”. The “effect on Mdm2 level (stabilization)” value in the experiment on Mdm2 is “led to Mdm2 stabilization”.
As for “GFP-574-611E2-m2: GFP fusion of gp78 574-611 with the E2 binding site mutation of residues 579 to 584”, the “effect on CD3-δ level (stabilization)” value with ERAD substrate CD3-δ is recorded as “totally prevented this stabilization”; in the experiment on ERAD substrate CD3-δ (listed as G2BD with amino acids 579-584 (of SEQ ID NO:2) mutated), “loss of this effect”. Besides, in the experiment on ERAD substrate TCR-α, the “effect on TCR-α level (stabilization)” value is given as “did not”.
Consider “UBA-Cbl-b: GST fusion of the UBA of the RING finger E3 Cbl-b (NVDAKIAKLMGEGYAFEEVKRALEIAQNNVEVARSILREF; also: GST fusion partner, not in chain) [reference compound]”, for which the “binding of K48 tetra-ubiquitin” value in experiment [1] is recorded as “binds”.

The record behind these values is patent US8420776B2, “Ube2G2 binding domain in the ubiquitin ligase gp78 and methods of use thereof” (The United States of America, as Represented by the …, priority 2004, dated 2013).
